One test concerns the target PI3Kδ (Homo sapiens (Human), UniProt O00329). Description: Enzymatic activity of PI3K isoforms, TR-FRET assay (PI3Kδ). It counts as biochemical. The conditions noted are these: 2× Km ATP, geometric mean if more than one value. How it is done: Enzymatic activity of the class I PI3K isoforms in the presence of the compounds of Table 1 and Compounds X, Y and Z was measured using a time-resolved fluorescence resonance energy transfer (TR-FRET) assay. The TR-FRET assay was used to monitor formation of the product 3,4,5-inositol triphosphate molecule (PIP3) as it competed with fluorescently labeled PIP3 for binding to the GRP-1 pleckstrin homology domain protein. An increase in […] product results in a decrease in TR-FRET signal as the labeled fluorophore is displaced from the GRP-1 protein binding site.
Class I PI3K isoforms were expressed and purified as heterodimeric recombinant proteins. All assay reagents and buffers for the TR-FRET assay were purchased from Millipore. PI3K isoforms were assayed under initial rate conditions in the presence of 25 mM Hepes (pH 7.4), and 2× Km ATP (75-500 μM), 2 μM PIP2, 5% glycerol, 5 mM MgCl2, 50 mM NaCl, 0.05% (v/v) Chaps, 1 mM dithiothreitol, 1% (v/v) DMSO at the following concentrations for each isoforms: PI3Kα, PI3Kβ, and PI3Kδ between 25 and 50 pM, and PI3Kγ at 2 nM. After an assay reaction time of 30 minutes at 25° C., reactions were terminated with a final concentration of 10 mM EDTA, 10 nM labeled-PIP3, and 35 nM Europium labeled GRP-1 detector protein before reading TR-FRET on an Envision plate reader (Ex: 340 nm; Em: 615/665 nm; […] delay and 500 μs read window).
Data were normalized based on positive ([…] wortmanin) and negative (DMSO) controls. α, β, δ, and γ IC50 values were calculated from the fit of the dose-response curves to a four-parameter equation. All IC50 values represent geometric mean values if more than one value was obtained. IC50 values were reported in units of nM.
(In general: Time-resolved FRET reads energy transfer from a long-lived donor to a nearby acceptor.)

Another test concerns basophils. Description: Basophil activation in human whole blood (Flow2 CAST kit, CD63 flow cytometry). The class given is cell-based. The conditions noted are these: Homo sapiens, human whole blood, basophils activated with anti-FcεRI mAb or fMLP, percent CD63 positive cells. As for the experimental part: Effect on basophil activation was measured in human whole blood using the Flow2 CAST® kit (Buhlmann Laboratories AG, Baselstrasse, Switzerland) following the protocol provided by the manufacturer with minor modifications. Human whole blood was collected into K2-EDTA venipuncture tubes. Whole blood samples were treated with either DMSO (0.3% final) or a serial dilution of compounds in DMSO for 60 minutes at 37° C. Basophils were then activated either with anti-FcεRI mAb or with fMLP. To activate basophils using the anti-FcεRI mAb; 50 μL of whole blood was mixed with 110 μL of stimulation buffer (B-BAT-STB) and 20 μl of anti-FcεRI (B-BAT-STCON). To activate basophils with fMLP; 50 μL of whole blood was mixed with 80 μL of stimulation buffer (B-BAT-STB) and 50 μL of fMLP (B-CCR-FMLP). Stimulation buffer was used as a negative control. 20 μL of the staining reagent (combination of anti-human CD63-FITC and anti-human CCR3-PE mAbs) was then added to each tube. The tubes were mixed gently and incubated for 25 minutes at 37° C. Subsequently, erythrocytes were lysed and fixed by the addition of 2 mL of lysing solution (B-BAT-LYR) for 10 minutes at room temperature. Cells were pelleted by centrifugation at 1200 rpm for 10 minutes at room temperature in a swing-out rotor. Supernatant was aspirated and cell pellet resuspended in 400 μL of wash buffer. Flow cytometric analysis of the basophil activation was performed on a FC500MPL flow cytometer (Beckman Coulter Inc., Fullerton, Calif.). CCR3-staining and side scatter were applied to gate at least 200 basophils that expressed a high density of CCR3. The percent CD63 positive cells within the gated basophil population were determined in different treatment groups and normalized to the vehicle control (0.3% DMSO) with anti-FcεRI mAb of fMLP stimulus as 100%. Final compound concentration was adjusted to correct for dilution effect of added reagents. The EC50 values were calculated from the analysis of the dose-response curves to a four-parameter equation.
(In general: Flow cytometry measures light scatter and fluorescence of single cells or particles in a stream.)

The structures appear in SMILES notation.

Chain of PI3Kδ (O00329 whole entry, the tested form may be a part, canonical isoform): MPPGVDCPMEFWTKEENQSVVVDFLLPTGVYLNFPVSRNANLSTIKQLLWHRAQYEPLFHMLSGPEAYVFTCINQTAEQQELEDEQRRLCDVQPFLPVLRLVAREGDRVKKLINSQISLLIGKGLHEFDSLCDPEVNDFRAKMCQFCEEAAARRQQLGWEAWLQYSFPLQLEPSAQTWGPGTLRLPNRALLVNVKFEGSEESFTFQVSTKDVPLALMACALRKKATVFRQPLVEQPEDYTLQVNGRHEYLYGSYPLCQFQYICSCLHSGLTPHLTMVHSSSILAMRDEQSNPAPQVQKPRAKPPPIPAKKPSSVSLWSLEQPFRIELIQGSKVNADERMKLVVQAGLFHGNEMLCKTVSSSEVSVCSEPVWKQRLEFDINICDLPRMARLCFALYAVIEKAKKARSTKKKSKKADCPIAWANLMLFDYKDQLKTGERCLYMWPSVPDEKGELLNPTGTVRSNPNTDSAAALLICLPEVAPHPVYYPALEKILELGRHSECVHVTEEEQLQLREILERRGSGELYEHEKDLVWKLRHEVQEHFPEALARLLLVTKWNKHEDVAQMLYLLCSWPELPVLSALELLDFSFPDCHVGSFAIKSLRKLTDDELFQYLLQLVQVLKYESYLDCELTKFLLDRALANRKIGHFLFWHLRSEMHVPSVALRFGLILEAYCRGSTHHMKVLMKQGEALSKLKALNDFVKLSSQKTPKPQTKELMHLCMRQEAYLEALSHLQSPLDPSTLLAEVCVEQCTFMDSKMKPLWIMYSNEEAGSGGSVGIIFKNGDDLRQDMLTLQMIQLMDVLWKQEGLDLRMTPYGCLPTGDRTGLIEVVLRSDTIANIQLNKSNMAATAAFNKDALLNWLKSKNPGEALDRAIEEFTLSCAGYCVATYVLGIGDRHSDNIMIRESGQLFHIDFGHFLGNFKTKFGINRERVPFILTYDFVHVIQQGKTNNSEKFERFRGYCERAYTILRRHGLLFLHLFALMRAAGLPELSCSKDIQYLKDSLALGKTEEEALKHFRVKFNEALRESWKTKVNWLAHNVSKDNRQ
Chain of PI3Kδ (P27986 whole entry partner, the tested form may be a part, canonical isoform): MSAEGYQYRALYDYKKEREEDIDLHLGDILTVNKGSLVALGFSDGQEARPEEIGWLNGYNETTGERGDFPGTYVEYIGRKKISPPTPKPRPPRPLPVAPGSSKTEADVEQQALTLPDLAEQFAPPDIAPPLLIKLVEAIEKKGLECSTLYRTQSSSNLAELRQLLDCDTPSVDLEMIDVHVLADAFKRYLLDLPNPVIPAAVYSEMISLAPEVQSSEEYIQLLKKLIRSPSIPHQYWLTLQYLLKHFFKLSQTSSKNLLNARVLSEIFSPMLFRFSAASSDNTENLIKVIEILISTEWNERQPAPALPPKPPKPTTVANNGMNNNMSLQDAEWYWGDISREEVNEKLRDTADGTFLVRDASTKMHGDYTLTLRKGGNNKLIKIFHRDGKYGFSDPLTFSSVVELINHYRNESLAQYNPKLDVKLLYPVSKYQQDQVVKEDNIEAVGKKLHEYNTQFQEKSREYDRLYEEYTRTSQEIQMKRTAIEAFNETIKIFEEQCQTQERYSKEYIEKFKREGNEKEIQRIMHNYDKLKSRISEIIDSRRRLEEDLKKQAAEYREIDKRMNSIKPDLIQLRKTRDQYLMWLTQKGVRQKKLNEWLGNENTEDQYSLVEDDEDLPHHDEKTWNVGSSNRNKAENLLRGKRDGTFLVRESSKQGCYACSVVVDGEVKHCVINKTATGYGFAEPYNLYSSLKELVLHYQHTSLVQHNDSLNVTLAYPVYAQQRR

A word on the IC50: it is the point on the concentration scale where inhibition reaches its midpoint. A low value points to inhibition by little substance. As usually defined, the EC50 is the concentration that produces a half-maximal response. In the case of `Cc1cccc2nc([C@H](C)Nc3nc(N)nc(N)c3C#N)n(-c3cccnc3)c(=O)c12` [Compound 7, (S)-2,4-diamino-6-(1-(5-methyl-4-oxo-3-(pyridin-3-yl)-3,4-dihydroquinazolin-2-yl)ethylamino)pyrimidine-5-carbonitrile], on PI3Kδ, 0.4 nM corresponded to half-maximal inhibition (IC50). Moreover, the EC50 was less than 1 nM in the test with basophils (class symbol) and 0.3 nM in the test on basophils (geometric mean). Turning to `C[C@H](Nc1nc(N)nc(N)c1C#N)c1nc2cccc(Cl)c2c(=O)n1-c1cncc(Cl)c1` [Compound 13, (S)-2,4-diamino-6-(1-(5-chloro-3-(5-chloropyridin-3-yl)-4-oxo-3,4-dihydroquinazolin-2-yl)ethylamino)pyrimidine-5-carbonitrile], the IC50 against PI3Kδ was 8 nM. Moreover, the values for the concentration giving a half-maximal response (EC50) with basophils (class symbol) and with basophils (geometric mean) were 1 to 10 nM and 4 nM, respectively. Compound `C[C@H](Nc1nc(N)nc(N)c1C#N)c1nc2ccc(F)c(Cl)c2c(=O)n1-c1cccnc1` [Compound 36, (S)-2,4-diamino-6-(1-(5-chloro-6-fluoro-4-oxo-3-(pyridin-3-yl)-3,4-dihydroquinazolin-2-yl)ethylamino)pyrimidine-5-carbonitrile] returned a half-maximal inhibitory concentration (IC50) against PI3Kδ of 4 nM. Moreover, the EC50 in the test on basophils (class symbol) was 1 to 10 nM; with basophils (geometric mean), 2 nM. In turn, `CC[C@H](Nc1nc(N)nc(N)c1C#N)c1nc2c(C#N)cc(F)cc2c(=O)n1-c1cncc(F)c1` [Compound 55, (S)-2-(1-((2,6-Diamino-5-cyanopyrimidin-4-yl)amino)propyl)-6-fluoro-3-(5-fluoropyridin-3-yl)-4-oxo-3,4-dihydroquinazoline-8-carbonitrile] yielded a half-inhibitory concentration (IC50) at PI3Kδ of 60 nM. Same read-out and setting: the same measure for `C[C@H](Nc1nc(N)nc(N)c1Cl)c1nc2cccc(F)c2c(=O)n1-c1cccnc1` [Compound 52, (S)-2-(1-((2,6-Diamino-5-chloropyrimidin-4-yl)amino)ethyl)-5-fluoro-3-(pyridin-3-yl)quinazolin-4(3H)-one]: 63 nM. Still for that read-out and setting: the same measure for `Cc1ccncc1-n1c([C@H](C)Nc2nc(N)nc(N)c2C#N)nc2cccc(C(F)(F)F)c2c1=O` (atropisomer, axis not shown) [Compound 79, (S)-2,4-Diamino-6-((1-(3-(4-methylpyridin-3-yl)-4-oxo-5-(trifluoromethyl)-3,4-dihydroquinazolin-2-yl)ethyl)amino)pyrimidine-5-carbonitrile]: 2 nM; for `N#Cc1c(N)nc(N)nc1N[C@@H](c1nc2c(F)ccc(Cl)c2c(=O)n1-c1cccnc1)C1CC1` [Compound 112, (R)-2,4-Diamino-6-(((5-chloro-8-fluoro-4-oxo-3-(pyridin-3-yl)-3,4-dihydroquinazolin-2-yl)(cyclopropyl)methyl)amino)pyrimidine-5-carbonitrile]: 7 nM; for `Cc1c(F)cncc1-n1c([C@@H](C)Nc2nc(N)nc(N)c2C#N)nc2cccc(Cl)c2c1=O` (atropisomer, axis not shown) [Compound 115, (R)-2,4-diamino-6-((1-(5-chloro-3-(5-fluoro-4-methylpyridin-3-yl)-4-oxo-3,4-dihydroquinazolin-2-yl)ethyl)amino)pyrimidine-5-carbonitrile]: 4 nM.

The compound `Cc1c(F)cncc1-n1c([C@H](C)Nc2nc(N)nc(N)c2C#N)nc2cccc(F)c2c1=O` (atropisomer, axis not shown) [Compound 68, (S)-2,4-diamino-6-((1-(5-fluoro-3-(5-fluoro-4-methylpyridin-3-yl)-4-oxo-3,4-dihydroquinazolin-2-yl)ethyl)amino)pyrimidine-5-carbonitrile] had an IC50 at PI3Kδ of 7 nM. Same read-out and setting: the same measure for `CC(C)C[C@H](Nc1nc(N)nc(N)c1C#N)c1nc2cccc(Cl)c2c(=O)n1-c1cncc(F)c1` [Compound 57, (S)-2,4-Diamino-6-((1-(5-chloro-3-(5-fluoropyridin-3-yl)-4-oxo-3,4-dihydroquinazolin-2-yl)-3-methylbutyl)amino)pyrimidine-5-carbonitrile]: 14 nM; for `C[C@H](Nc1nc(N)nc(N)c1Cl)c1nc2cccc(C#N)c2c(=O)n1-c1cccnc1` [Compound 63, (S)-2-(1-((2,6-diamino-5-chloropyrimidin-4-yl)amino)ethyl)-4-oxo-3-(pyridin-3-yl)-3,4-dihydroquinazoline-5-carbonitrile]: 95 nM; for `CC[C@H](Nc1nc(N)nc(N)c1C#N)c1nc2cccc(Cl)c2c(=O)n1-c1cncc(F)c1C` (atropisomer, axis not shown) [Compound 71, (S)-2,4-diamino-6-((1-(5-chloro-3-(5-fluoro-4-methylpyridin-3-yl)-4-oxo-3,4-dihydroquinazolin-2-yl)propyl)amino)pyrimidine-5-carbonitrile]: 49 nM. Same read-out and setting: with `Cc1c(F)cncc1-n1c([C@H](C)Nc2nc(N)nc(N)c2C#N)nc2cccc(F)c2c1=O` (atropisomer, axis not shown) [Compound 67, (S)-2,4-diamino-6-((1-(5-fluoro-3-(5-fluoro-4-methylpyridin-3-yl)-4-oxo-3,4-dihydroquinazolin-2-yl)ethyl)amino)pyrimidine-5-carbonitrile] the figure was 120 nM; with `CC[C@H](Nc1nc(N)nc(N)c1C#N)c1nc2c(F)ccc(Br)c2c(=O)n1-c1cccnc1` [Compound 61, (S)-2,4-diamino-6-((1-(5-bromo-8-fluoro-4-oxo-3-(pyridin-3-yl)-3,4-dihydroquinazolin-2-yl)propyl)amino)pyrimidine-5-carbonitrile], 1 nM.

`C[C@@H](Nc1nc(N)nc(N)c1C#N)c1nc2c(F)ccc(Cl)c2c(=O)n1-c1cncc(F)c1` [Compound 113, (R)-2,4-Diamino-6-((1-(5-chloro-8-fluoro-3-(5-fluoropyridin-3-yl)-4-oxo-3,4-dihydroquinazolin-2-yl)ethyl)amino)pyrimidine-5-carbonitrile] gave a 50% inhibitory concentration (IC50) against PI3Kδ of 620 nM. This IC50 is about 620-fold higher than that of the compound before. For `C[C@@H](Nc1nc(N)nc(N)c1C#N)c1nc2c(F)ccc(Cl)c2c(=O)n1-c1cccnc1` [Compound 110, (R)-2,4-Diamino-6-((1-(5-chloro-8-fluoro-4-oxo-3-(pyridin-3-yl)-3,4-dihydroquinazolin-2-yl)ethyl)amino)pyrimidine-5-carbonitrile], on PI3Kδ, the IC50 is 61 nM. The same measure, in the same setting: with `C[C@H](Nc1nc(N)nc(N)c1Cl)c1nc2cccc(Cl)c2c(=O)n1-c1cccnc1` [Compound 53, (S)-5-Chloro-2-(1-((2,6-diamino-5-chloropyrimidin-4-yl)amino)ethyl)-3-(pyridin-3-yl)quinazolin-4(3H)-on] the figure was 4 nM. Compound `C[C@H](Nc1nc(N)nc(N)c1C(N)=O)c1nc2cccc(Cl)c2c(=O)n1-c1cccnc1` [Compound 50, (S)-2,4-Diamino-6-((1-(5-chloro-4-oxo-3-(pyridin-3-yl)-3,4-dihydroquinazolin-2-yl)ethyl)amino)pyrimidine-5-carboxamide] showed a 50% inhibitory concentration (IC50) against PI3Kδ of 2 nM. On the same count and under the same terms, with `Cc1c(F)cncc1-n1c([C@H](C)Nc2nc(N)nc(N)c2C#N)nc2c(F)ccc(Cl)c2c1=O` (atropisomer, axis not shown) [Compound 74, (S)-2,4-diamino-6-((1-(5-chloro-8-fluoro-3-(5-fluoro-4-methylpyridin-3-yl)-4-oxo-3,4-dihydroquinazolin-2-yl)ethyl)amino)pyrimidine-5-carbonitrile] the figure was 1 nM.
